In general, Ki refers to a measure of affinity in units of concentration, obtained from inhibition or displacement.

T1 sequence (Q9Y5N1 whole entry): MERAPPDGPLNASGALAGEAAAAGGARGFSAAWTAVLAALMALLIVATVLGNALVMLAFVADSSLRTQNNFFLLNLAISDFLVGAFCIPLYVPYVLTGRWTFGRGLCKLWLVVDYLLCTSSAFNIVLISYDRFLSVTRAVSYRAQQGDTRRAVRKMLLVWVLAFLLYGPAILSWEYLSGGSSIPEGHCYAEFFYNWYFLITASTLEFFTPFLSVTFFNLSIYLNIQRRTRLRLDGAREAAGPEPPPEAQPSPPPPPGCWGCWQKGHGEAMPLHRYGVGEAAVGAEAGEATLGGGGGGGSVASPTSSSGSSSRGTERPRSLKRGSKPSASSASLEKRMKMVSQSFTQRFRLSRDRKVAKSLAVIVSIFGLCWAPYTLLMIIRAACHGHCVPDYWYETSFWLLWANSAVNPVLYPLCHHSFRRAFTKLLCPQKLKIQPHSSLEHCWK

The assay concerns the target T1, cloned human H3 receptors, stably expressed in SK-N-MC cells (Homo sapiens, UniProt Q9Y5N1).
T1 construct: expressed in transfected cells; host or cells: SK-N-MC cells
Put plainly: H3 Receptor Binding (Human). The conditions noted are these: average of the results obtained. Here is the method:
Binding of compounds to the cloned human H3 receptors, stably expressed in SK-N-MC cells, was performed as described by Barbier, A. J. et al. (Br. J. Pharmacol. 2004, 143(5), 649-661). Data for compounds tested in this assay are presented in Table 1 as an average of the results obtained.
Consider `O=C(c1cccc2[nH]cc(CN3CCOCC3)c12)N1CCN(C2CCC2)CC1` [Example 41, (4-Cyclobutyl-piperazin-1-yl)-(3-morpholin-4-ylmethyl-1H-indol-4-yl)-methanone], for which the Ki was determined as 5 µM.
Turning to `O=C(c1cccc2[nH]cc(CN3CCCCC3)c12)N1CCN(C2CCC2)CC1` [Example 42, (4-Cyclobutyl-piperazin-1-yl)-(3-piperidin-1-ylmethyl-1H-indol-4-yl)-methanone], the Ki stood at 1.5 µM.
As for `O=C(c1ccc2c(CN3CCN(C4CCC4)CC3)c[nH]c2c1)N1CCC(c2ccccc2)CC1` [Example 43, [3-(4-Cyclobutyl-piperazine-1-ylmethyl)-1H-indol-6-yl]-(4-phenyl-piperidin-1-yl)-methanone], the affinity, expressed as Ki, was 0.008 µM. Compared with the last compound, the Ki is about 190-fold lower.
In the case of `CC(C)N1CCN(C(=O)c2ccc3c(CN4CCN(c5ccccn5)CC4)c[nH]c3c2)CC1` [Example 46, (4-Isopropyl-piperazin-1-yl)-[3-(4-pyridin-2-yl-piperazin-1-ylmethyl)-1H-indol-6-yl]-methanone] it was 0.003 µM; in that of `CC(=O)N1CCN(Cc2c[nH]c3cc(C(=O)N4CCN(C(C)C)CC4)ccc23)CC1` [Example 48, 1-{4-[6-(4-Isopropyl-piperazine-1-carbonyl)-1H-indol-3-ylmethyl]-piperazin-1-yl}-ethanone], 0.005 µM; in that of `CC(C)N1CCN(C(=O)c2ccc3c(CN4CCN(c5nccs5)CC4)c[nH]c3c2)CC1` [Example 49, (4-Isopropyl-piperazin-1-yl)-[3-(4-thiazol-2-yl-piperazin-1-ylmethyl)-1H-indol-6-yl]-methanone], 0.007 µM.
In the case of `CC(=O)N1CCCN(Cc2c[nH]c3cc(C(=O)N4CCN(C(C)C)CC4)ccc23)CC1` [Example 50, 1-{4-[6-(4-Isopropyl-piperazine-1-carbonyl)-1H-indol-3-ylmethyl]-[1,4]diazepam-1-yl}-ethanone] it was 0.003 µM; in that of `CC(C)N1CCN(C(=O)c2ccc3c(CN4CCN(Cc5ccccc5)CC4)c[nH]c3c2)CC1` [Example 51, [3-(4-Benzyl-piperazin-1-ylmethyl)-1H-indol-6-yl]-(4-isopropyl-piperazin-1-yl)-methanone], 0.002 µM; in that of `CC(C)N1CCN(C(=O)c2ccc3c(CN4CCN(c5ccc(-c6ccccc6)cc5)CC4)c[nH]c3c2)CC1` [Example 52, [3-(4-Biphenyl-4-yl-piperazin-1-ylmethyl)-1H-indol-6-yl]-(4-isopropyl-piperazin-1-yl)-methanone], 0.012 µM.
In the case of `CC(C)N1CCN(C(=O)c2ccc3c(CN4CCN(C(c5ccccc5)c5ccccc5)CC4)c[nH]c3c2)CC1` [Example 53, [3-(4-Benzydryl-piperazin-1-ylmethyl)-1H-indol-6-yl]-(4-isopropyl-piperazin-1-yl)-methanone] it was 0.019 µM.
Take `CC(C)N1CCN(C(=O)c2ccc3c(CN4CCN(S(C)(=O)=O)CC4)c[nH]c3c2)CC1` [Example 54, (4-Isopropyl-piperazin-1-yl)-[3-(4-methanesulfonyl-piperazin-1-ylmethyl)-1H-indol-6-yl]-methanone]: the Ki was found to be 0.012 µM.
As to `CC(C)N1CCN(C(=O)c2ccc3c(CN4CCC(Cc5ccccc5)CC4)c[nH]c3c2)CC1` [Example 55, [3-(4-Benzyl-piperidin-1-ylmethyl)-1H-indol-6-yl]-(4-isopropyl-piperazin-1-yl)-methanone], the Ki was found to be 0.001 µM.
In the case of `CC(C)N1CCN(C(=O)c2ccc3c(CN4CCN(CCc5ccccc5)CC4)c[nH]c3c2)CC1` [Example 56, (4-Isopropyl-piperazin-1-yl)-[3-(4-phenethyl-piperazin-1-ylmethyl)-1H-indol-6-yl]-methanone] it was 0.002 µM.
In the case of `CC(C)N1CCN(C(=O)c2ccc3c(CN4CCCOCC4)c[nH]c3c2)CC1` [Example 59, (4-Isopropyl-piperazin-1-yl)-(3-[1,4]-oxazepan-4-ylmethyl-1H-indol-6-yl)-methanone], the affinity corresponds to a Ki of 0.001 µM.
The figure for `CC(=O)N(C)C1CCN(Cc2c[nH]c3cc(C(=O)N4CCN(C(C)C)CC4)ccc23)C1` (stereo not drawn) [Example 60, N-{1-[6-(4-Isopropyl-piperazine-1-carbonyl)-1H-indol-3-ylmethyl]-pyrrolidin-3-yl}-N-methyl-acetamide] is 0.001 µM.
In the case of `CC(C)N1CCN(C(=O)c2ccc3c(CN4CCN(C(=O)N5CCOCC5)CC4)c[nH]c3c2)CC1` [Example 61, (4-Isopropyl-piperazin-1-yl)-{3-[4-(morpholine-4-carbonyl)-piperazin-1-ylmethyl]-1H-indol-6-yl}-methanone] it was 0.003 µM; in that of `CC(C)N1CCN(C(=O)c2ccc3c(CN4CCN(C(=O)c5ccncc5)CC4)c[nH]c3c2)CC1` [Example 62, (4-Isopropyl-piperazin-1-yl)-{3-[4-(pyridine-4-carbonyl)-piperazin-1-ylmethyl]-1H-indol-6-yl}-methanone], 0.007 µM; in that of `CC(C)N1CCN(C(=O)c2ccc3c(CN4CCN(C(=O)c5ccccc5)CC4)c[nH]c3c2)CC1` [Example 63, [3-(4-Benzoyl-piperazin-1-ylmethyl)-1H-indol-6-yl]-(4-isopropyl-piperazin-1-yl)-methanone], 0.001 µM.
The figure for `CC(C)N1CCN(C(=O)c2ccc3c(CN4CCN(c5ccncc5)CC4)c[nH]c3c2)CC1` [Example 64, (4-Isopropyl-piperazin-1-yl)-[3-(4-pyridin-4-yl-piperazin-1-ylmethyl)-1H-indol-6-yl]-methanone] is 0.001 µM; for `CC(C)N1CCN(C(=O)c2ccc3c(CN4CCC(O)(c5ccccc5)CC4)c[nH]c3c2)CC1` [Example 65, [3-(4-Hydroxy-4-phenyl-piperidin-1-ylmethyl)-1H-indol-6-yl]-(4-isopropyl-piperazin-1-yl)-methanone] it is 0.001 µM.
Take `O=C(c1ccc2c(CN3CCC(N4CCCCC4)CC3)c[nH]c2c1)N1CCSCC1` [Example 67, (3-[1,4′]Bipiperidinyl-1′-ylmethyl-1H-indol-6-yl)-thiomorpholin-4-yl-methanone]: affinity was put at a Ki of 0.171 µM.
In the case of `O=C(c1ccc2c(CN3CCN(C4CCCC4)CC3)c[nH]c2c1)N1CCSCC1` [Example 68, [3-(4-Cyclopentyl-piperazin-1-ylmethyl)-1H-indol-6-yl]-thiomorpholin-4-yl-methanone] it was 0.036 µM; in that of `CN(C)C1CCN(Cc2c[nH]c3cc(C(=O)N4CCSCC4)ccc23)C1` (stereo not drawn) [Example 69, [3-(3-Dimethylamino-pyrrolidin-1-ylmethyl)-1H-indol-6-yl]-thiomorpholin-4-yl-methanone], 0.019 µM.
Turning to `O=C(c1ccc2c(CN3CCN(C4CCC4)CC3)c[nH]c2c1)N1CCSCC1` [Example 70, [3-(4-Cyclobutyl-piperazin-1-ylmethyl)-1H-indol-6-yl]-thiomorpholin-4-yl-methanone], the affinity corresponds to a Ki of 0.027 µM.
The figure for `O=C(c1ccc2c(CN3CCCN(C4CCC4)CC3)c[nH]c2c1)N1CCSCC1` [Example 71, [3-(4-Cyclobutyl-[1,4]diazepan-1-ylmethyl)-1H-indol-6-yl]-thiomorpholin-4-yl-methanone] is 0.022 µM; for `CC(C)N1CCCN(Cc2c[nH]c3cc(C(=O)N4CCSCC4)ccc23)CC1` [Example 72, [3-(4-Isopropyl-[1,4]diazepan-1-ylmethyl)-1H-indol-6-yl]-thiomorpholin-4-yl-methanone] it is 0.036 µM.
The compound `O=C(c1ccc2c(CN3CCC(N4CCCCC4)CC3)c[nH]c2c1)N1CCOCC1` [Example 73, (3-[1,4′]Bipiperidinyl-1′-ylmethyl-1H-indol-6-yl)-morpholin-4-yl-methanone] registered a Ki of 0.205 µM.
The figure for `O=C(c1ccc2c(CN3CCN(C4CCCC4)CC3)c[nH]c2c1)N1CCOCC1` [Example 74, [3-(4-Cyclopentyl-piperazin-1-ylmethyl)-1H-indol-6-yl]-morpholin-4-yl-methanone] is 0.053 µM.
The figure for `O=C(c1ccc2c(CN3CCN(C4CCC4)CC3)c[nH]c2c1)N1CCOCC1` [Example 75, [3-(4-Cyclobutyl-piperazin-1-ylmethyl)-1H-indol-6-yl]-morpholin-4-yl-methanone] is 0.043 µM; for `CC(C)N1CCN(Cc2c[nH]c3cc(C(=O)N4CCOCC4)ccc23)CC1` [Example 76, [3-(4-Isopropyl-piperazin-1-ylmethyl)-1H-indol-6-yl]-morpholin-4-yl-methanone] it is 0.054 µM.
The figure for `O=C(c1ccc2c(CN3CCCN(C4CCC4)CC3)c[nH]c2c1)N1CCOCC1` [Example 77, [3-(4-Cyclobutyl-[1,4]diazepan-1-ylmethyl)-1H-indol-6-yl]-morpholin-4-yl-methanone] is 0.038 µM; for `CC(C)N1CCCN(Cc2c[nH]c3cc(C(=O)N4CCOCC4)ccc23)CC1` [Example 78, [3-(4-Isopropyl-[1,4]diazepan-1-ylmethyl)-1H-indol-6-yl]-morpholin-4-yl-methanone] it is 0.042 µM; for `O=C(c1ccc2c(CN3CCC(N4CCCCC4)CC3)c[nH]c2c1)N1CCC(CO)CC1` [Example 79, (3-[1,4′]Bipiperidinyl-1′-ylmethyl-1H-indol-6-yl)-(4-hydroxymethyl-piperidin-1-yl)-methanone] it is 0.062 µM.
The compound `O=C(c1ccc2c(CN3CCN(C4CCCC4)CC3)c[nH]c2c1)N1CCC(CO)CC1` [Example 80, [3-(4-Cyclopentyl-piperazin-1-ylmethy)l-1H-indol-6-yl]-(4-hydroxymethyl-piperidin-1-yl)-methanone] showed an inhibition constant (Ki) of 0.038 µM. This Ki lies about 1.6-fold lower than the previous one.
The figure for `O=C(c1ccc2c(CN3CCN(C4CCC4)CC3)c[nH]c2c1)N1CCC(CO)CC1` [Example 81, [3-(4-Cyclobutyl-piperazin-1-ylmethy)l-1H-indol-6-yl]-(4-hydroxymethyl-piperidin-1-yl)-methanone] is 0.017 µM; for `CC(C)N1CCN(Cc2c[nH]c3cc(C(=O)N4CCC(CO)CC4)ccc23)CC1` [Example 82, (4-Hydroxymethyl-piperidin-1-yl)-[3-(4-isopropyl-piperazin-1-ylmethyl)-1H-indol-6-yl]-methanone] it is 0.034 µM.

The values are drawn from patent US20110178062A1, “INDOLE AND BENZOTHIOPHENE COMPOUNDS AS MODULATORS OF THE HISTAMINE H3 RECEPTOR” (priority 2007, published 2011).
